Assay results as given in US20060189645A1, “Novel 6-phenylphenantridines” (Altana Pharma AG, priority 2003, published 2006).

tested on: not given; test: not given; conditions: not given

| Structure (SMILES) | melting point |
| --- | --- |
| COc1cc2c(cc1OC)[C@H]1CCCC[C@H]1N=C2c1ccc(C(C)=NNC(=O)c2cccnc2)cc1 [Compound 1, Nicotinic acid {1-[4-((4aR,10bR)-8,9-dimethoxy-1,2,3,4,4a,10b-hexahydro-phenanthridin-6-yl)-phenyl]-ethylidene}-hydrazide] | 162 °C |

tested on: PDE4; test: Inhibition of PDE4 activity ([3H]cAMP hydrolysis, cytosol from human neutrophils); assay type: biochemical; conditions: 0.5 μM cAMP, Motapizone 1 μM to suppress PDE3, 15 min at 37° C.
Method: Method for Measuring Inhibition of PDE4 Activity
PDE4 activity was determined as described by Thompson et al. (Adv Cycl Nucl Res 10: 69-92, 1979) with some modifications (Bauer and Schwabe, Naunyn-Schmiedeberg's Arch Pharmacol 311: 193-198, 1980). At a final assay volume of 200 μl (96 well microtiter plates) the assay mixture contained 20 mM Tris (pH 7.4), 5 mM MgCl2, 0.5 μM cAMP, [^3H]cAMP (about 30,000 cpm/assay), the test compound and an aliquot of cytosol from human neutrophils which mainly contains PDE4 activity as described by Schudt et al. (Naunyn-Schmiedeberg's Arch Pharmacol 344: 682-690, 1991); the PDE3-specific inhibitor Motapizone (1 μM) was included to suppress PDE3 activity originating from contaminating platelets. Serial dilutions of the compounds were prepared in DMSO and further diluted 1:100 (v/v) in the assays to obtain the desired final concentrations of the inhibitors at a DMSO concentration of 1% (v/v) which by itself only slightly affected PDE4 activity.
After preincubation for 5 min at 37° C., the reaction was started by the addition of substrate (cAMP) and the assays were incubated for further 15 min at 37° C. 50 μl of 0.2 N HCl was added to stop the reaction and the assays were left on ice for about 10 min. Following incubation with 25 μg 5′-nucleotidase (Crotalus atrox snake venom) for 10 min at 37° C., the assays were loaded on QAE Sephadex A-25 (1 ml bed volume). The columns were eluted with 2 ml of 30 mM ammonium formiate (pH 6.0) and the eluate was counted for radioactivity. Results were corrected for blank values (measured in the presence of denatured protein) which were below 5% of total radioactivity. […] The IC50-values for the compounds according to the invention for the inhibition of the PDE4 activity were determined from the concentration-inhibition curves by nonlinear-regression.

| Structure (SMILES) | Inhibition of the PDE4 activity, −log IC50 |
| --- | --- |
| COc1cc2c(cc1OC)[C@H]1CCCC[C@H]1N=C2c1ccc(C(C)=NNC(C)=O)cc1 [Compound 4, Acetic acid {1-[4-((4aR,10bR)-8,9-dimethoxy-1,2,3,4,4a,10b-hexahydro-phenanthridin-6-yl)-phenyl]-ethylidene}-hydrazide] | 8.95 |
| COc1cc2c(cc1OC)C1CCCCC1N=C2c1cccc(C(C)=NNC(N)=O)c1 (centres unmarked) [Compound 37, 1-[3-((4aR10bR)-8,9-Dimethoxy-1,2,3,4,4a,10b-hexahydro-phenanthridin-6-yl)-phenyl]-ethanone-semicarbazone] | 8.75 |
| COc1cc2c(cc1OC)[C@H]1CCCC[C@H]1N=C2c1ccc(C(C)=NNC(=O)CC#N)cc1 [Compound 2, Cyano-acetic acid {1-[4-((4aR,10bR)-8,9-dimethoxy-1,2,3,4,4a,10b-hexahydro-phenanthridin-6-yl)-phenyl]-ethylidene}-hydrazide] | 8.61 |
| COc1cc2c(cc1OC)[C@H]1CCCC[C@H]1N=C2c1ccc(C(C)=NNC(=O)c2cccnc2)cc1 [Compound 1, Nicotinic acid {1-[4-((4aR,10bR)-8,9-dimethoxy-1,2,3,4,4a,10b-hexahydro-phenanthridin-6-yl)-phenyl]-ethylidene}-hydrazide] | 8.62 |
| COc1cc2c(cc1OC)[C@H]1CCCC[C@H]1N=C2c1ccc(C(C)=NNC(N)=O)cc1 [Compound 6, 1-[4-((4aR,10bR)-8,9-Dimethoxy-1,2,3,4,4a,10b-hexahydro-phenanthridin-6-yl)-phenyl]-ethanone-semicarbazone] | 8.64 |
| COc1cc2c(cc1OC)[C@H]1CCCC[C@H]1N=C2c1ccc(C(C)=NNC(=O)c2ccncc2)cc1 [Compound 3, Isonicotinic acid {1-[4-((4aR,10bR)-8,9-dimethoxy-1,2,3,4,4a,10b-hexahydro-phenanthridin-6-yl)-phenyl]-ethylidene}-hydrazide] | 8.71 |
| COc1cc2c(cc1OC)[C@H]1CCCC[C@H]1N=C2c1ccc(C(=NNC(N)=O)c2ccccc2)cc1 [Compound 7, 1-[4-((4aR,10bR)-8,9-Dimethoxy-1,2,3,4,4a,10b-hexahydro-phenanthridin-6-yl)-phenyl]-1-phenyl-methanone-semicarbazone] | 9.38 |
